Source: patent US11518742B2 (priority 2020, dated 2022)
Like-named read-outs stand apart in the source and are kept apart here.

What was measured:
[1] = 14-day repeat-dose intranasal toxicity study with 14-day recovery in rats (Study 700041); type: in vivo, rat; details: both sexes, Sprague Dawley, in vivo, inhaled or intranasal; 14-day intranasal, rat
Method: (§1) The animals were monitored for mortality, clinical signs, respiratory measurements, body weights, food consumption, and body temperature. Ophthalmoscopic examinations and respiratory function tests were performed on all animals at scheduled timepoints. Clinical pathology assessments (hematology, coagulation, clinical chemistry, and urinalysis) were evaluated at termination. […] Following dosing, the Main animals were euthanized and subjected to a complete necropsy examination on Day 15. […] TK animals were euthanized after the last blood collection and discarded without further examination. At terminal euthanasia, selected tissues/organs were weighed, and microscopic evaluations of a standard set of tissues including the nasal turbinates (4 sections) and brain (7 sections) were performed for all Main and Recovery study animals.
(§2) Following dosing, animals in the Main group were euthanized and subjected to a necropsy examination on Day 15. […] For toxicokinetics, a series of 8 blood samples (approximately 0.5 mL each) were collected from all rats in the Toxicokinetic group (3 rats/sex/timepoint) on Days 1 and 14 of the treatment period at 2, 5, 10, 15 and 30 minutes, and 1.0, 3.0 and 8 hours after treatment. For control rats (3 rats/sex) in the Toxicokinetic group only 1 sample was collected at the 15 minutes post dosing timepoint on Days 1 and 14.
(§3) Toxicity was based on the following parameters monitored: mortality/morbidity, clinical observations, body weights/gains, food consumption, ophthalmoscopy, clinical pathology (hematology, coagulation, chemistry, and urinalysis), necropsy observations, selected organ weights, and microscopic examination of a complete set of standard tissues including 4 cross levels of the nasal cavity and 7 sections of the brain.

Sprague Dawley rats = experiment: as above; type: in vivo, rat; details: for Thymus Mean Absolute Weight, percentage compared to the control value: males; for Clinical signs: male and female
Method: as §1, §2, §3

[2] = Toxicokinetics, 14-day intranasal study in dogs (Study 62959); type: in vivo; details: dog, plasma, inhaled or intranasal; for AUC(0-inf): read-out: AUCINF_obs; for half-life: read-out: t1/2 (converted); for AUC(0-t): read-out: AUC0-Tlast
Method: Assessments of mortality, clinical signs, olfactory reflex, body weights, food consumption, ophthalmology, and electrocardiograms were performed. In addition, clinical pathology assessments (hematology, coagulation, clinical chemistry and urinalysis) were evaluated once pretreatment and at termination. Blood samples were collected from the jugular vein of all animals on Days 1 and 14, at up to 8 time points relative to treatment, for analysis of test item concentration in plasma and the subsequent calculation of toxicokinetic parameters. Following dosing, the Main animals were euthanized and subjected to a complete necropsy examination on Day 15. […] All Main and Recovery study animals underwent complete necropsy examinations, selected tissues/organs were retained, and microscopic evaluations of a standard set of tissues were performed.
For toxicokinetics, a series of 8 blood samples were collected from the jugular vein from all treated animals on each of Days 1 and 14 of the treatment period at 2, 5, 10, 15, 30, and 60 minutes as well as 3 and 8 hours after treatment.

[3] = Summary of clinical observations in applicant-sponsored rat studies; details: Sprague Dawley, in vivo, other: intranasal instillation, HED 48 mg, read-out: NOAEL determined in the 14-day toxicology studies
Source text: Based on preliminary data from another ongoing study in dogs, it has been observed that the site of blood sampling in dogs may impact the measured plasma exposure. Samples from the jugular vein may result in higher apparent exposure levels than samples from the cephalic vein, which might be due to the local transmucosal route of administration (also reported in the scientific literature (Illum, 2003; Sohlberg, 2013)). Therefore, dose escalation criteria for the Phase 1 Single Ascending Dose study are based on assessment of clinical criteria, safety factors and exposure. A maximum dose of 14 mg has been designated.

[4] = female, Beagle, 0.8 mg/kg/day, Day 1, Female
[5] = female, Beagle, 0.8 mg/kg/day, Day 14, Female
[6] = female, beagle, 0.4 mg/kg/day, Day 1, Female
[7] = female, beagle, 0.4 mg/kg/day, Day 14, Female
[8] = female, beagle, […], 2.5 & […], Day 1, Female
[9] = male, Beagle, 0.8 mg/kg/day, Day 1, Male
[10] = male, Beagle, 0.8 mg/kg/day, Day 14, Male
[11] = male, beagle, 0.4 mg/kg/day, Day 1, Male
[12] = male, beagle, 0.4 mg/kg/day, Day 14, Male
[13] = male, beagle, […], 2.5 & […], Day 14, Male

COc1ccc2[nH]cc(CCN(C)C)c2c1 [BPL-5MEO, 5-methoxy-N,N-dimethyltryptamine]
NOAEL at 14 days [1]: 5 mg/kg
Effect on reproductive tissues (Sprague Dawley rats; 14-day pivotal GLP intranasal toxicity study, rats): no evidence of an adverse effect on reproductive tissues
Respiratory rates (Sprague Dawley rats; 20 minutes post dose): Decreases in respiratory rates
Thymus Mean Absolute Weight, percentage compared to the control value (Sprague Dawley rats; Group 2 (5 mg/kg/day)): −4%
Clinical signs (Sprague Dawley rats; Group 2 (Low Dose) 5 mg/kg/day): incoordination, shaking, salivation, decreased activity, lying on cage floor and sensitive to touch
Thymus Mean Absolute Weight, percentage compared to the control value (Sprague Dawley rats; Group 3 (20 mg/kg/day)): 18%
Clinical signs (Sprague Dawley rats; Group 3 (Mid Dose) 20 mg/kg/day): incoordination, shaking (or tremor), increased or shallow respiration, mydriasis, salivation, decreased activity, partially closed eyes, lying on cage floor and sensitive to touch
Thymus Mean Absolute Weight, percentage compared to the control value (Sprague Dawley rats; Group 4 (75 mg/kg/day)): −31%
Clinical signs (Sprague Dawley rats; Group 4 (High Dose) 75 mg/kg/day): incoordination, shaking (or tremor), increased or shallow respiration, mydriasis, salivation, decreased activity, partially closed eyes, lying on cage floor and sensitive to touch
Microscopic findings, epithelium of nasal cavities 1-4 (Sprague Dawley rats; Main animals, proportional to dose, greater in males): minimal to mild changes
Reversibility of nasal microscopic findings (Sprague Dawley rats; after 14-day recovery period): incomplete but progressive ongoing reversal of epithelial degeneration
Body temperature (Sprague Dawley rats; both sexes): Slight dose dependent body temperature increases
Body weight gain (Sprague Dawley rats; both sexes, Days 1 to 14): Slight dose-dependent body weight gain suppression
Ocular effect (Sprague Dawley rats; dose levels 75 mg/kg/day for 14 days): no adverse ocular effect
Activated partial thromboplastin time (APTT) (Sprague Dawley rats; mid (20 mg/kg/day) and high (75 mg/kg/day) dose groups, both sexes): APTT were increased
Hematology (Sprague Dawley rats; mid and high dose groups, both sexes): Platelet, neutrophil, monocyte and basophil counts were slightly increased
Overall tolerability (Sprague Dawley rats; ≤75 mg/kg/day for 14 consecutive days): tolerated with no BPL-5MEO-related effects on mortality, ophthalmology, clinical chemistry, macroscopic findings and urinalysis
AUC ([2]; Beagle, dogs, 1.5 mg/kg/day, combined for both sexes, read-out: AUCINT_obs at the NOAEL): 220 ng·h/mL
Cmax [2, 4]: 328 ng/mL
AUC(0-inf) [2, 4]: 265 ng·h/mL
half-life [2, 4]: 43.8 min
Cmax [2, 5]: 244 ng/mL
AUC(0-t) [2, 5]: 248 ng·h/mL
half-life [2, 5]: 95.4 min
Cmax [2, 6]: 242 ng/mL
AUC(0-t) [2, 6]: 104 ng·h/mL
AUC(0-inf) [2, 6]: 106 ng·h/mL
half-life [2, 6]: 18.7 min
Cmax [2, 7]: 196 ng/mL
AUC(0-t) [2, 7]: 86.4 ng·h/mL
AUC(0-inf) [2, 7]: 95.9 ng·h/mL
half-life [2, 7]: 42.4 min
Tmax [2, 8]: 6.66 min
half-life [2, 8]: 50.9 min
Cmax [2, 9]: 300 ng/mL
Tmax [2, 9]: 6.66 min
AUC(0-t) [2, 9]: 152 ng·h/mL
AUC(0-inf) [2, 9]: 160 ng·h/mL
half-life [2, 9]: 35.7 min
Cmax [2, 10]: 411 ng/mL
Tmax [2, 10]: 6.66 min
AUC(0-t) [2, 10]: 298 ng·h/mL
AUC(0-inf) [2, 10]: 322 ng·h/mL
half-life [2, 10]: 79.2 min
Cmax [2, 11]: 343 ng/mL
AUC(0-t) [2, 11]: 77.9 ng·h/mL
AUC(0-inf) [2, 11]: 80.9 ng·h/mL
half-life [2, 11]: 34.3 min
Cmax [2, 12]: 285 ng/mL
Tmax [2, 12]: 6.66 min
AUC(0-t) [2, 12]: 70.6 ng·h/mL
AUC(0-inf) [2, 12]: 77.7 ng·h/mL
half-life [2, 12]: 25.7 min
Tmax [2, 13]: 13.4 min
half-life [2, 13]: 49 min
NOAEL at 14 days [3]: 5 mg/kg
